From publication PMC7247349, “Reactions of Plasmodium falciparum Ferredoxin:NADP^+ Oxidoreductase with Redox Cycling Xenobiotics: A Mechanistic Study” (International Journal of Molecular Sciences, 2020) come the findings set out here.

Experiment [1] concerns the target T1, Ferredoxin:NADP^+ oxidoreductase (PfFNR) (Plasmodium falciparum, UniProt C6KT68).
T1 construct: gene FNR; recombinant PfFNR
Nature of the experiment: steady-state kinetics; competitive inhibition versus AcPyP+ in transhydrogenase reaction; stopped-flow FAD reduction. Type of experiment: biochemical. The text has this:
steady-state kinetics; competitive inhibition versus AcPyP+ in transhydrogenase reaction; stopped-flow FAD reduction on Ferredoxin:NADP^+ oxidoreductase (PfFNR) | NADPH acts as a competitive inhibitor to AcPyP^+, occupying the pyridine nucleotide binding site of the reduced enzyme form

Experiment [2] deals with T1, Ferredoxin:NADP^+ oxidoreductase (PfFNR). Kind of experiment: steady-state product inhibition of juglone reductase reaction. Type of experiment: biochemical.

T1 sequence (C6KT68 56-371): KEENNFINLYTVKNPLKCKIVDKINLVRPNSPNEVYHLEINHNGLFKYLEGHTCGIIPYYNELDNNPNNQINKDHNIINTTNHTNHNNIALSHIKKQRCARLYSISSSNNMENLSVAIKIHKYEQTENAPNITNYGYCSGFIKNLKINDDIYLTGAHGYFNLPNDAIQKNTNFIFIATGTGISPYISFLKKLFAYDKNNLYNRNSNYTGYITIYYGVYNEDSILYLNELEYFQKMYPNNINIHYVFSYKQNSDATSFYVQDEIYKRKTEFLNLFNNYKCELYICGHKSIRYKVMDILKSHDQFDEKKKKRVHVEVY

For `NC(=O)C1=CN([C@@H]2O[C@H](COP(=O)(O)OP(=O)(O)OC[C@H]3O[C@@H](n4cnc5c(N)ncnc54)[C@H](OP(=O)(O)O)[C@@H]3O)[C@@H](O)[C@H]2O)C=CC1` [NADPH], the Ki in experiment [1] was determined as 140 ± 20 µM. On to `NC(=O)c1ccc[n+]([C@@H]2O[C@H](COP(=O)([O-])OP(=O)(O)OC[C@H]3O[C@@H](n4cnc5c(N)ncnc54)[C@H](OP(=O)(O)O)[C@@H]3O)[C@@H](O)[C@H]2O)c1` [NADP^+], for which, in experiment [2], the inhibitory constant (Ki) stood at 1420 ± 130 µM.

As a reminder, the Ki is the equilibrium dissociation constant of an inhibitor or competing ligand from its target.
